The numbers were not newly measured in patent US20090062246A1, “THERAPEUTIC TREATMENT-014” (ASTRAZENECA AB, priority 2007, published 2009), which cites them from elsewhere.

For this data set, the target named is T1, ETB receptor (Homo sapiens, UniProt P24530).
T1 sequence (P24530 27-442): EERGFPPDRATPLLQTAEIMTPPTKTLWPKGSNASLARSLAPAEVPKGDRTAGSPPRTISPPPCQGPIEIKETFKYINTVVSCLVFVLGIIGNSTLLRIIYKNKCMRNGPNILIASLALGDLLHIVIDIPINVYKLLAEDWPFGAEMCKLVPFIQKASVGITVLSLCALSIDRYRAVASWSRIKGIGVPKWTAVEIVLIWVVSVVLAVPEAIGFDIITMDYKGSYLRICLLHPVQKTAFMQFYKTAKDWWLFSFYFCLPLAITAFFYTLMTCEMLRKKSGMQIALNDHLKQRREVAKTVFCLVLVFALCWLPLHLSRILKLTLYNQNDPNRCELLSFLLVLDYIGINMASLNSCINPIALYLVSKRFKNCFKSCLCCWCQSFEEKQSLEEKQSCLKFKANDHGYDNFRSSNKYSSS
The conditions noted are these: described in WO04/018044.

On to `COc1nc(C)cnc1NS(=O)(=O)c1cccnc1-c1ccc(-c2nnco2)cc1` [Compound (I), N-(3-methoxy-5-methylpyrazin-2-yl)-2-(4-[1,3,4-oxadiazol-2-yl]phenyl)pyridine-3-sulphonamide], for which the “affinity for the ETB receptor” value was “no measurable affinity”.
